This note sets out measurements from US20200030305A1, “LOCAL ANESTHETIC-CONTAINING ACIDIC EMULSION COMPOSITION” (Maruishi Pharmaceutical Co., Ltd., priority 2017, published 2020).

Counter-ions that a name gives are not always drawn.

A short description of the series: Oil-water partition ratio. The format is physicochemical. The conditions noted are these: 0.05% by mass aqueous solution vs oil phase soybean oil:MCT 1:1, 25° C. Here is the method: 5 g of an oil phase (soybean oil:medium-chain fatty acid triglyceride=1:1) was added to 5 g of a 0.05% by mass aqueous levobupivacaine hydrochloride solution, and the mixture was stirred with a vortex mixer for 1 minute. After that, the whole was transferred to a centrifugation tube and centrifuged at 3600 rpm at 25° C. for 10 minutes, and the aqueous phase was separated. The levobupivacaine concentration of the aqueous phase was measured by HPLC, and the oil-water partition ratio was determined.

Turning to `CCCCN1CCCC[C@H]1C(=O)Nc1c(C)cccc1C` [levobupivacaine hydrochloride, (2S)-1-butyl-N-(2,6-dimethylphenyl)piperidine-2-carboxamide], the “proportion present in the aqueous phase (oil-water partition ratio)” value was 94.3%.
